Measurements from patent US4321254A, “Antiallergic imidodisulfamides” (SmithKline Corporation, priority 1980, dated 1982).

Test system: slow reacting substance of anaphylaxis (SRS-A)
Test: Inhibition of SRS-A induced contraction of guinea pig ileum
Settings: compound concentration 5×10^-6 M, partially purified SRS-A from guinea pig lung, agonist 40 μg/ml, 15 min, 5 µM
Experimental: The SRS-A antagonist activity of the compounds of this invention is measured by the ability of the active medicament to inhibit SRS-A induced contraction of guinea pig ileum. In this test system, sections of ileum are resected from guinea pigs and placed in 5 ml. tissue baths containing a modified Tyrode's solution. One end of the tissue is fixed to a glass tissue holder, the other is connected to a force-displacement transducer and the tissue is placed under a tension of 500 mg. Isometric tissue contractions are recorded on a six channel polygraph. Baths are constantly aerated with 95% O2 -5% CO2. After a 20 minute stabilization period a concentration of the appropriate agonist which provides a contraction height of 60-80% of the maximum obtainable to that agonist (as determined) from full sequential concentration--response curves in separate experiments) is added to the tissue bath and the response recorded. The procedure is repeated until reproducible responses are obtained. […] Percent inhibition produced by the test compound is calculated by substracting the mean percentage change in control tissue from the mean percentage change in tissues exposed to the test compound. Additional compounds are then evaluated as long as the tissue remains reproducibly responsive to the agonist. […]

O=S(=O)(Nc1ccc2c(c1)CN(S(=O)(=O)NS(=O)(=O)N1CCc3ccc(NS(=O)(=O)c4ccc(Cl)cc4)cc3C1)CC2)c1ccc(Cl)cc1 [Compound 1, N,N'-bis[7-(4-chlorophenylsulfonamide)-1,2,3,4-tetrahydroisoquinolyl]disulfonylimide]
percent antagonism of SRS-A induced contraction: 59%
